Each structure is given as a SMILES string.

What all share (type): in vivo
Test [1] concerns Avena fatua (AVEFA). Briefly: Example B post-emergence herbicidal activity, glasshouse pot test. Conditions: 312 h, rate 250 g/ha, evaluated after 13 days, read-out: Post-emergence activity AVEFA (100=total damage to plant; 0=no damage to plant). On the procedure: (§1) Seeds of a variety of test species were sown in standard soil in pots. After cultivation for one day (pre-emergence) or after 8 days cultivation (post-emergence) under controlled conditions in a glasshouse (at 24/16° C., day/night; 14 hours light; 65% humidity), the plants were sprayed with an aqueous spray solution derived from the formulation of the technical active ingredient in acetone/water (50:50) solution containing 0.5% Tween 20 (polyoxyethelyene sorbitan monolaurate, CAS RN 9005-64-5). The test plants were then grown in a glasshouse under controlled conditions in a glasshouse (at 24/16° C., day/night; 14 hours light; 65% humidity) and watered twice daily. After 13 days for pre and post-emergence, the test was evaluated (100=total damage to plant; 0=no damage to plant).
(§2) Alopecurus myosuroides (ALOMY), Avena fatua (AVEFA), Setaria faberi (SETFA), Echinochloa crus-galli (ECHCG), Solanum nigrum (SOLNI) and Amaranthus retroflexus (AMARE)

For test [2], the system named is Amaranthus retroflexus (AMARE). Described as above. The settings on record: 312 h, rate 250 g/ha, evaluated after 13 days, read-out: Post-emergence activity AMARE (100=total damage to plant; 0=no damage to plant). As for the experimental part:
as §1, §2

The subject of test [3] is Setaria faberi (SETFA). Described as above. Conditions: 312 h, rate 250 g/ha, evaluated after 13 days, read-out: Post-emergence activity SETFA (100=total damage to plant; 0=no damage to plant). On the procedure:
as §1, §2

For test [4], the system named is Echinochloa crus-galli (ECHCG). Described as above. The settings on record: 312 h, rate 250 g/ha, evaluated after 13 days, read-out: Post-emergence activity ECHCG (100=total damage to plant; 0=no damage to plant). On the procedure:
as §1, §2

The test system of test [5] is Alopecurus myosuroides (ALOMY). The description is as above. Conditions: 312 h, rate 250 g/ha, evaluated after 13 days, read-out: Post-emergence activity ALOMY (100=total damage to plant; 0=no damage to plant). On the procedure: as §1, §2
In test [6] the test system is Avena fatua (AVEFA). Briefly: Example B pre-emergence herbicidal activity, glasshouse pot test. The settings on record: 312 h, rate 250 g/ha, evaluated after 13 days, read-out: Pre-emergence activity AVEFA (100=total damage to plant; 0=no damage to plant). On the procedure:
as §1, §2

In test [7] the test system is Amaranthus retroflexus (AMARE). The description is as above. Conditions: 312 h, rate 250 g/ha, evaluated after 13 days, read-out: Pre-emergence activity AMARE (100=total damage to plant; 0=no damage to plant). As for the experimental part:
as §1, §2

Test [8] has as its system Setaria faberi (SETFA). The description is as above. The settings on record: 312 h, rate 250 g/ha, evaluated after 13 days, read-out: Pre-emergence activity SETFA (100=total damage to plant; 0=no damage to plant). As for the experimental part:
as §1, §2

Test [9] deals with Echinochloa crus-galli (ECHCG). Described as above. The settings on record: 312 h, rate 250 g/ha, evaluated after 13 days, read-out: Pre-emergence activity ECHCG (100=total damage to plant; 0=no damage to plant). On the procedure:
as §1, §2

For test [10], the system named is Alopecurus myosuroides (ALOMY). Described as above. Conditions: 312 h, rate 250 g/ha, evaluated after 13 days, read-out: Pre-emergence activity ALOMY (100=total damage to plant; 0=no damage to plant). On the procedure:
as §1, §2

In the case of `CCc1ccc(-c2ccc(Cl)c(Cl)c2)cc1C1=C(O)[C@]2(C)O[C@@H](CC2COC)C1=O` (stereo partly drawn) [Compound A-130], the pest or weed control at 250 g/ha in test [1] turned out to be 40%; in test [2], 0%; in [3], 100%; in test [4] it was 100%; in test [5], 40%; in test [6], 20%. The pest or weed control at 250 g/ha in test [7] was determined as 0%; in [8], 90%; in test [9], 40%; in test [10] it was 20%.

For `CCc1ccc(-c2ccc(Cl)c(Cl)c2F)cc1C1=C(O)C(C)(C)OC(C)(C)C1=O` [Compound A-155], the pest or weed control at 250 g/ha in [1] turned out to be 90%; in [2] it was 40%; in test [3], 100%; in test [4], 100%; in [5], 100%; in test [6] it was 0%. Moreover, the pest or weed control at 250 g/ha in [7] was 0%; in test [8], 100%; in test [9] it was 100%; in test [10], 50%.

As for `CCc1ccc(-c2ccc(Cl)cc2Cl)cc1C1=C(O)C(C)(C)S(=O)(=O)C(C)(C)C1=O` [Compound C-11], the pest or weed control at 250 g/ha in [1] stood at 60%; in [2] it was 20%; in test [3], 30%; in test [4] it was 80%; in [5] it was 70%; in test [6], 80%. For the same compound, the pest or weed control at 250 g/ha in [7], in test [8], in [9] and in test [10] was 0% in each case.

Consider `CCc1ccc(-c2ccc(Cl)c(F)c2Cl)cc1C1=C(O)C(C)(C)OC(C)(C)C1=O` [Compound A-138], for which the pest or weed control at 250 g/ha in test [1] came out at 100%; in [2], 60%; in test [3], 100%; in test [4], 100%; in test [5], 100%; in [6] it was 90%. The pest or weed control at 250 g/ha in test [7] came to 20%; in [8], 100%; in test [9] it was 100%; in test [10], 90%.

As for `CCc1ccc(-c2ccc(Cl)c(C(F)(F)F)c2F)cc1C1=C(O)C(C)(C)OC(C)(C)C1=O` [Compound A-154], the pest or weed control at 250 g/ha in test [1] turned out to be 70%; in test [2], 0%; in test [3], 100%; in [4], 100%; in [5], 100%; in test [6], 20%. In addition, the pest or weed control at 250 g/ha in test [7] stood at 0%; in test [8], 90%; in [9] it was 100%; in test [10], 50%.

For `CCOc1ccc(-c2ccc(Cl)cc2)cc1C1=C(O)C(C)(C)OC(C)(C)C1=O` [Compound A-89], the pest or weed control at 250 g/ha came out at 50% in test [1]; 0% in [2]; 80% in [3]; 90% in test [4]; 80% in test [5]; 0% in test [6]. For the same compound, the pest or weed control at 250 g/ha in test [7] came out at 0%; in [8], 50%; in test [9], 0%; in test [10] it was 0%.

`CC[C@]12CC[C@H](O1)C(=O)C(c1cc(-c3ccc(Cl)cc3)ccc1C)=C2O` (single isomer, unassigned) [Compound A-80]: the pest or weed control at 250 g/ha stood at 0% in test [1]; 0% in [2]; 90% in test [3]; 100% in [4]; 30% in [5]; 0% in test [6]. For the same compound, the pest or weed control at 250 g/ha in test [7] worked out at 0%; in test [8], 70%; in test [9], 40%; in test [10], 30%.

Turning to `CCc1ccc(-c2ccc(Cl)c(C#N)c2)cc1C1=C(O)C(C)(C)OC(C)(C)C1=O` [Compound A-69], the pest or weed control at 250 g/ha was found to be 90% in test [1]; 90% in test [2]; 100% in test [3]; 100% in [4]; 70% in test [5]; 0% in test [6]. The pest or weed control at 250 g/ha in test [7] was found to be 0%; in [8] it was 80%; in test [9], 60%; in test [10], 0%.

For `CCc1ccc(-c2ccc(Cl)cc2Cl)cc1C1=C(O)C(C)(C)SC(C)(C)C1=O` (single isomer, unassigned) [Compound C-4], the pest or weed control at 250 g/ha in test [1] was found to be 30%; in [2], 20%; in [3], 70%; in test [4], 70%; in [5], 60%; in [6] it was 0%. The pest or weed control at 250 g/ha in test [7], in [8], in [9] and in [10] was 0% throughout.

Turning to `CCOC[C@]12CC[C@H](O1)C(=O)C(c1cc(-c3ccc(Cl)c(F)c3)ccc1CC)=C2O` (single isomer, unassigned) [Compound A-126], the pest or weed control at 250 g/ha amounted to 90% in test [1]; 0% in test [2]; 100% in [3]; 100% in [4]; 70% in [5]; 90% in [6]. Also, the pest or weed control at 250 g/ha in test [7] was 0%; in test [8] it was 100%; in [9], 80%; in test [10], 30%.

As for `CCOc1ccc(-c2ccc(Cl)cc2F)cc1C1=C(O)C(C)(C)OC(C)(C)C1=O` [Compound A-88], the pest or weed control at 250 g/ha in test [1] was 10%; in [2], 0%; in [3], 90%; in test [4], 90%; in test [5] it was 50%; in test [6] it was 10%. Also, the pest or weed control at 250 g/ha in [7], in test [8], in [9] and in [10] was 0% throughout.

For `CCc1ccc(-c2ccc(Br)cc2)cc1C1=C(O)C(C)(C)OC(C)(C)C1=O` [Compound A-81], the pest or weed control at 250 g/ha in [1] was found to be 100%; in test [2], 0%; in [3], 100%; in test [4], 100%; in [5], 100%; in test [6], 90%. Besides, the pest or weed control at 250 g/ha in test [7] was 0%; in test [8], 100%; in test [9], 100%; in test [10], 80%.

For the origin of these results see US8680012B2, “4-phenyl-pyrane-3,5-diones,4-phenyl-thiopyrane-3,6-diones and cyclohexanetriones as novel herbicides” (Syngenta Crop Protection LLC, priority 2006, dated 2014).
